The source of these data is ChEMBL document CHEMBL1201862, “PubChem BioAssay data set” (2004).

Several values for one entry are separate records, joined by “and”; a condition that tells them apart may be missing. Identical values can stand only once.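 These data come from cells grown in 96-well plates and exposed to compound for 48 hours at five concentrations. The concentration for 50% growth inhibition is given as GI50.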 Activity calls are given as the source filed them. Rule as the data show it: active = GI50 up to about 1.1 µM and inactive = higher. Where a SMILES comes first, the peptide text is derived from it. The star is where a group is joined. Cbz = O=C(OCc1ccccc1)* Bounds are passed on as bounds.

Test systems include ACHN; CCRF-CEM; DU-145; HCT-15; HOP-62; HOP-92; IGROV-1; MDA-MB-231; MDA-MB-435; Malme-3M; NCI-H23; NCI-H460; NCI/ADR-RES; SF-268; SK-MEL-28; SK-MEL-5; SN12C; SNB-75; T47D; BT-549.
What all share (test): NCI-60 cell line screen, 48 h

Take `CN(C)C(c1ccccc1)C1COC2Cc3ccccc3C1O2` (stereo unspecified): the GI50 in the experiment with ACHN is > 100 µM (inactive); in the experiment on CCRF-CEM it was 79.3 µM (inactive); in the experiment on DU-145, > 100 µM (inactive); in the experiment with HCT-15, above 100 µM; with HOP-62 it was > 100 µM (inactive); in the experiment on HOP-92, 58.1 µM (inactive). The GI50 in the experiment on IGROV-1 was > 100 µM (inactive); in the experiment on MDA-MB-231, > 100 µM (inactive); in the experiment with MDA-MB-435, > 100 µM (inactive); in the experiment with Malme-3M it was > 100 µM (inactive) and 60.7 µM (inactive); in the experiment with NCI-H23 it was > 100 µM (inactive); in the experiment on NCI-H460, > 100 µM (inactive). Moreover, the GI50 in the experiment on NCI/ADR-RES is > 100 µM (inactive); in the experiment with SF-268 it was > 100 µM (inactive); in the experiment with SK-MEL-28, > 100 µM (inactive); in the experiment with SK-MEL-5, > 100 µM (inactive); in the experiment on SN12C, > 100 µM (inactive); with SNB-75, 24.9 µM (inactive) and 15.5 µM (inactive). The GI50 with T47D was > 100 µM (inactive).
Consider `CC[C@H]1C=CCC[C@@]2(C[C@@H]3CC[C@@H]4[C@H](C(=O)OCCCCCCCCCCCCCCCC(=O)N(CCCN)CCCCN)[C@]5(CCC[C@@H](C)O5)NC(=[N+]34)N2)O1`, for which the GI50 with ACHN is 0.0826 µM (active); in the experiment with BT-549 it was 0.138 µM (active); in the experiment with CCRF-CEM, 0.0151 µM (active); in the experiment on DU-145, 0.348 µM (active); in the experiment with HCT-15, 0.0479 µM; with HOP-62, 0.0415 µM (active). In addition, the GI50 was 0.0224 µM (active) in the experiment on HOP-92; 0.0695 µM (active) in the experiment with IGROV-1; 0.275 µM (active) with MDA-MB-231; < 0.01 µM (active) with MDA-MB-435; 0.04 µM (active) in the experiment on Malme-3M; 0.0724 µM (active) with NCI-H23. For the same molecule, the GI50 in the experiment on NCI-H460 was 0.0301 µM (active); with NCI/ADR-RES, 0.0944 µM (active); in the experiment with SF-268, 0.0214 µM (active); with SK-MEL-28, 0.233 µM (active); in the experiment with SK-MEL-5 it was < 0.01 µM (active); with SN12C, 0.0753 µM (active). Moreover, the GI50 in the experiment with SNB-75 is 0.0533 µM (active).
Turning to `C/C(NC(=O)c1ccccc1)=C(/C(=O)c1ccccc1)[C@@H]1OC(C)(C)O[C@@H]1[C@H]1COC(C)(C)O1`, the GI50 with ACHN is 67.3 µM (inactive); with BT-549 it was 25.8 µM (inactive); in the experiment with DU-145 it was 44.7 µM (inactive); with HCT-15, 32.8 µM; in the experiment with HOP-62, 33.1 µM (inactive); with HOP-92, 19.4 µM (inactive). In addition, the GI50 in the experiment on IGROV-1 was 13.2 µM (inactive); in the experiment with MDA-MB-231, 23.7 µM (inactive); with MDA-MB-435, 19.5 µM (inactive); with Malme-3M it was 37.6 µM (inactive); in the experiment on NCI-H23 it was 22.9 µM (inactive); with NCI-H460, 20.7 µM (inactive). Further, the GI50 was 27.7 µM (inactive) in the experiment with NCI/ADR-RES; 35.6 µM (inactive) with SF-268; 52.4 µM (inactive) in the experiment with SK-MEL-28; 16.3 µM (inactive) in the experiment on SK-MEL-5; 25.2 µM (inactive) with SN12C.
In the case of `S=C(/N=c1\sc(Nc2ccc(Cl)cc2)nc2sc3c(c12)CCN(N1CCc2c(sc4nc(Nc5ccc(Cl)cc5)s/c(=N\C(=S)Nc5ccc(Cl)cc5)c24)C1)C3)Nc1ccc(Cl)cc1`, the GI50 with ACHN is 35.1 µM (inactive); in the experiment on BT-549, > 100 µM (inactive); with DU-145, 25.4 µM (inactive); in the experiment with HCT-15 it was 42.2 µM; in the experiment on HOP-62, 36.1 µM (inactive); with IGROV-1, 35.7 µM (inactive). Further, the GI50 with MDA-MB-231 is 18.6 µM (inactive); in the experiment with Malme-3M it was > 100 µM (inactive); in the experiment with NCI-H23 it was 53.7 µM (inactive); in the experiment with NCI-H460, 33.8 µM (inactive); in the experiment with NCI/ADR-RES, 48 µM (inactive); in the experiment with SF-268 it was > 100 µM (inactive). The values for the GI50 with SK-MEL-28, with SN12C and in the experiment with SNB-75 were 38.2 µM (inactive), 19.2 µM (inactive) and 26.7 µM (inactive), respectively.
`N#Cc1sc2c(c1OC(=O)c1ccc(Cl)cc1)c(=O)n(-c1ccccc1)c(=S)n2-c1ccccc1`: the GI50 was 28.4 µM (inactive) with ACHN; 4.37 µM (inactive) in the experiment on CCRF-CEM; 25.8 µM (inactive) with DU-145; 15.8 µM in the experiment on HCT-15; 27.7 µM (inactive) in the experiment with HOP-62; 18.5 µM (inactive) in the experiment on HOP-92. Also, the GI50 with IGROV-1 is 16.7 µM (inactive); with MDA-MB-231 it was 32.4 µM (inactive); in the experiment with MDA-MB-435, 20.6 µM (inactive); in the experiment with Malme-3M, 20.4 µM (inactive); in the experiment with NCI-H23, 21.7 µM (inactive); in the experiment with NCI-H460, 16.4 µM (inactive). The GI50 was 23.3 µM (inactive) in the experiment on NCI/ADR-RES; 23.3 µM (inactive) in the experiment with SF-268; 16.9 µM (inactive) in the experiment on SK-MEL-28; 17.1 µM (inactive) with SK-MEL-5; 21 µM (inactive) with SN12C; 40.8 µM (inactive) in the experiment with SNB-75. In the experiment with T47D, the GI50 was 24.4 µM (inactive).
`O=[N+]([O-])c1ccc2[nH]nc(OCc3ccccn3)c2c1`: the GI50 is > 100 µM (inactive) in the experiment with ACHN; > 100 µM (inactive) in the experiment with CCRF-CEM; > 100 µM (inactive) in the experiment with DU-145; above 100 µM in the experiment on HCT-15; > 100 µM (inactive) in the experiment on HOP-62; 35.7 µM (inactive) with HOP-92. For the same molecule, the GI50 in the experiment on IGROV-1, in the experiment on MDA-MB-231, in the experiment on MDA-MB-435, with Malme-3M, in the experiment on NCI-H23 and with NCI-H460 was > 100 µM (inactive) each time. Also, the GI50 in the experiment with NCI/ADR-RES is > 100 µM (inactive); with SF-268, > 100 µM (inactive); with SK-MEL-28, > 100 µM (inactive); in the experiment on SK-MEL-5 it was > 100 µM (inactive); in the experiment with SN12C it was > 100 µM (inactive); in the experiment with SNB-75 it was 31.5 µM (inactive). Also, the GI50 in the experiment on T47D was 47 µM (inactive).
As for `N#Cc1nc(C2CCC(=O)O2)oc1N` (stereo unspecified), the GI50 with ACHN is > 100 µM (inactive); in the experiment with BT-549, > 100 µM (inactive); in the experiment with CCRF-CEM, > 100 µM (inactive); in the experiment with DU-145 it was > 100 µM (inactive); with HCT-15, above 100 µM; in the experiment on HOP-62 it was > 100 µM (inactive). The GI50 in the experiment on IGROV-1 was > 100 µM (inactive); in the experiment with MDA-MB-231 it was > 100 µM (inactive); with MDA-MB-435, > 100 µM (inactive); in the experiment with Malme-3M it was 13.4 µM (inactive); in the experiment on NCI-H23 it was > 100 µM (inactive); in the experiment on NCI-H460, > 100 µM (inactive). The GI50 with NCI/ADR-RES is > 100 µM (inactive); with SF-268, > 100 µM (inactive); in the experiment on SK-MEL-28, > 100 µM (inactive); in the experiment with SK-MEL-5, > 100 µM (inactive); in the experiment on SN12C, > 100 µM (inactive); in the experiment with SNB-75, 29 µM (inactive).
Take `CCOC(=O)C(CC(=O)OC)NC(=O)C(CC(=O)OC)NC(=O)C(CC(=O)OC)NC(=O)C(CC(=O)OC)NC(=O)OCc1ccccc1` (stereo unspecified) (Cbz-D(OMe)D(OMe)D(OMe)D(OMe)-OEt; configuration not given here): the GI50 with ACHN is > 100 µM (inactive); in the experiment with BT-549, > 100 µM (inactive); with HCT-15 it was above 100 µM; in the experiment on HOP-62, > 100 µM (inactive); in the experiment on HOP-92, > 100 µM (inactive); with IGROV-1, > 100 µM (inactive). Besides, the GI50 in the experiment with MDA-MB-231, with Malme-3M, in the experiment with NCI-H23, with NCI-H460, with SK-MEL-28 and in the experiment with SK-MEL-5 was > 100 µM (inactive) throughout. Besides, the GI50 in the experiment on SN12C, in the experiment on SNB-75 and in the experiment on T47D was > 100 µM (inactive) each time.
